Measured values published in PubChem BioAssay (NCI).
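Tested at 5 concentrations; 48 h exposure; 96-well plates; endpoints linearly interpolated, else capped at highest concentration. GI50: concentration for 50% inhibition of growth. Definition used: TGI = concentration required for complete inhibition of growth.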

How the values were obtained:
Assay in all cases: DTP human tumour cell line panel, 48 h
HCT-15 colon = test system: HCT-15 colon
SF-539 CNS = test system: SF-539 CNS
TK-10 renal = test system: TK-10 renal
IGROV1 ovarian = test system: IGROV1 ovarian
SF-295 CNS = test system: SF-295 CNS
COLO 205 colon = test system: COLO 205 colon
NCI-H226 lung = test system: NCI-H226 lung
DU-145 prostate = test system: DU-145 prostate
UACC-62 melanoma = test system: UACC-62 melanoma
T-47D breast = test system: T-47D breast

| Compound | GI50 (HCT-15 colon) [µM] | TGI (HCT-15 colon) [µM] | GI50 (SF-539 CNS) [µM] | TGI (SF-539 CNS) [µM] | GI50 (TK-10 renal) [µM] | TGI (TK-10 renal) [µM] | GI50 (IGROV1 ovarian) [µM] | TGI (IGROV1 ovarian) [µM] | GI50 (SF-295 CNS) [µM] | TGI (SF-295 CNS) [µM] | GI50 (COLO 205 colon) [µM] | TGI (COLO 205 colon) [µM] | GI50 (NCI-H226 lung) [µM] | TGI (NCI-H226 lung) [µM] | GI50 (DU-145 prostate) [µM] | TGI (DU-145 prostate) [µM] | GI50 (UACC-62 melanoma) [µM] | TGI (UACC-62 melanoma) [µM] | TGI (T-47D breast) [µM] |
| --- | --- | --- | --- | --- | --- | --- | --- | --- | --- | --- | --- | --- | --- | --- | --- | --- | --- | --- | --- |
| O=C(Cc1cc(O)ccc1O)NO | 74.6 | > 100 | > 100 | > 100 | 57.6 | > 100 | > 100 | > 100 | 21.7 | 47.9 | 18.6 | 36.3 | 70 | > 100 | > 100 | > 100 | 24.7 | 63.3 | – |
| O=C(O)c1ccc(CSc2nc3ccccc3[nH]2)cc1 | > 100 | > 100 | > 100 | > 100 | > 100 | > 100 | > 100 | > 100 | > 100 | > 100 | > 100 | > 100 | > 100 | > 100 | > 100 | > 100 | – | – | – |
| Cc1ccccc1N(CCC#N)C1=NN(C(=O)CC(=O)Nc2ccc(Cl)cc2)C(c2ccccc2)C1 (centres undefined) | – | > 100 | – | > 100 | – | – | – | > 100 | – | > 100 | – | > 100 | – | > 100 | – | – | – | > 100 | – |
| O=c1cccccc1[O-].O=c1cccccc1[O-].O=c1cccccc1[O-].[Nd+3] | – | > 100 | 19.7 | 74.9 | – | > 100 | – | > 100 | – | > 100 | – | – | – | > 100 | – | – | – | 88 | – |
| CC(=O)OCc1nnn2c1C(OC(C)=O)CC2 (centres undefined) | – | > 100 | – | > 100 | – | > 100 | – | > 100 | – | > 100 | – | > 100 | – | > 100 | – | – | – | > 100 | – |
| CC(=O)OC(COc1ccc2c(c1)[n+]([O-])nc(N)[n+]2[O-])CN1CCCCC1 (centres undefined) | – | 31.6 | – | 39 | – | 96.4 | – | – | – | – | – | 30.5 | – | 54 | – | 54.9 | – | – | – |
| CNC(=O)/C=C/C1=CN2C(=O)c3ccc(C)c(O)c3NC(OC)C2C1 (centres undefined) | – | 4.48 | – | < 0.0176 | – | – | – | > 100 | – | 1.07 | – | < 0.0202 | – | 0.0731 | – | < 0.01 | – | < 0.0154 | < 0.0489 |
| C[C@@H](NC1CCCC[C@@H]1O)c1ccccc1 (some centres undefined) | – | > 100 | – | – | – | > 100 | – | > 100 | – | > 100 | – | > 100 | – | > 100 | – | – | – | > 100 | – |
| OC1CC(O)O[C@H](c2ccccc2)C1 (some centres undefined) | – | > 100 | – | > 100 | – | > 100 | – | > 100 | – | > 100 | – | > 100 | – | > 100 | – | – | – | > 100 | – |
| Cc1[nH]c(=O)n2c(C)nnc2c1C(=O)O | – | > 100 | – | > 100 | – | > 100 | – | > 100 | – | > 100 | – | > 100 | – | > 100 | – | – | – | > 100 | – |
| CC(=O)OC(C(=O)[O][Ge]([CH3])([CH3])[CH3])c1ccccc1 (centres undefined) | > 100 | > 100 | > 100 | > 100 | > 100 | > 100 | > 100 | > 100 | > 100 | > 100 | > 100 | > 100 | > 100 | > 100 | – | – | > 100 | > 100 | – |
| CC1=C2CC[C@@]3(C)C(=CCC3O)C2(C)CCC1=O (some centres undefined) | – | > 100 | – | > 100 | – | > 100 | – | > 100 | – | > 100 | – | > 100 | – | > 100 | – | – | – | > 100 | – |
